Measurements from article PMC13125297, “Portable geosmin detection system based on sensor cells expressing insect odorant receptors” (Scientific Reports, 2026).

How the values were obtained:
Or13a = target: T1, Or13a (Drosophila melanogaster, UniProt Q9VXL0); assay: GCaMP6s calcium imaging in Sf21 cells co-expressing Or13a and Orco, dose-response; type: cell-based
T1 construct: wild-type Or13a stably expressed in Sf21 cells (clone Or13a-WT-C4); with Orco
T1 sequence (Q9VXL0 1-418): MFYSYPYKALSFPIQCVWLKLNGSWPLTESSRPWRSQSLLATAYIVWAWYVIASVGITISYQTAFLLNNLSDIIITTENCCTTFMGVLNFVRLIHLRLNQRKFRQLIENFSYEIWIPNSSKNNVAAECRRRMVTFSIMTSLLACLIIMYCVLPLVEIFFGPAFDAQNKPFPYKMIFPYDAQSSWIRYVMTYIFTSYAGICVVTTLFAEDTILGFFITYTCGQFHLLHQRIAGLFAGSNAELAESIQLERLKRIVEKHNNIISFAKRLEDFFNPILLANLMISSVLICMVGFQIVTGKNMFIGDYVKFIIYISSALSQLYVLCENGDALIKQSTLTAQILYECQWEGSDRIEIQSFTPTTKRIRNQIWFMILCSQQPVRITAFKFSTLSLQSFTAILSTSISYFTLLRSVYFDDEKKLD
T1 sequence (Q9VNB5 1-486 partner): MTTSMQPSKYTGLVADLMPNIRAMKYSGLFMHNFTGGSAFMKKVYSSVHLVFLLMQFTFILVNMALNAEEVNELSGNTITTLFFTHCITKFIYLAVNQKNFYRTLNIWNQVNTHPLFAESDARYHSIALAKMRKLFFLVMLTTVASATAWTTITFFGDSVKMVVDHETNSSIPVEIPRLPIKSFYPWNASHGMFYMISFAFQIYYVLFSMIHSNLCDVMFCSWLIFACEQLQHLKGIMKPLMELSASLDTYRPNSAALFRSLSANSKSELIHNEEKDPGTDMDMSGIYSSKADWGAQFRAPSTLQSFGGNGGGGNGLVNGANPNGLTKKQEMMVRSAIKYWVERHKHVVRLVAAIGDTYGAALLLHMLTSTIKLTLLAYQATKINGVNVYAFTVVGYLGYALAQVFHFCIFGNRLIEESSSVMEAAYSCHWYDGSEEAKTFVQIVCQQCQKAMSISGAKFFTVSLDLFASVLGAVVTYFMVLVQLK

Or56a = target: T2, Or56a (Drosophila melanogaster, UniProt Q9V8Y7); assay: GCaMP6s calcium imaging in Sf21 cells co-expressing Or56a and Orco, dose-response; type: cell-based
T2 construct: with Orco
T2 sequence (Q9V8Y7 whole entry, one chain of several): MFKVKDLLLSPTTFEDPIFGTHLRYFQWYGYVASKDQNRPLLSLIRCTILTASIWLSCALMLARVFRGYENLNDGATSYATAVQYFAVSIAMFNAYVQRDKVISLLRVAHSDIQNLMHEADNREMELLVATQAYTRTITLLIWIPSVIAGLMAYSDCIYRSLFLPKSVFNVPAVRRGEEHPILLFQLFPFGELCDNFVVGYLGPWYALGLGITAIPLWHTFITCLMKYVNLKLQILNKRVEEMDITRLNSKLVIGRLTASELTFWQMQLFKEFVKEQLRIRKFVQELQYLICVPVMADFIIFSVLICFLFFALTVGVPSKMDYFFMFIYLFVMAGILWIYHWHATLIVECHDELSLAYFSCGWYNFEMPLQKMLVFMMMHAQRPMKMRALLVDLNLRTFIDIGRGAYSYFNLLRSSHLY

| SMILES | EC50 (Or13a) [nM] | EC50 (Or56a) [nM] |
| --- | --- | --- |
| C=CC(O)CCCCC (centres unmarked) [1-octen-3-ol] | 3500 | – |
| CC1CCCC2(C)CCCCC12O (stereo not drawn) [geosmin, trans-1,10-dimethyl-trans-9-decalol] | – | 630 |
